Data as given in patent EP4603105A1, “PHARMACEUTICAL COMPOSITION CONTAINING CYCLIC COMPOUND HAVING SELECTIVE KRAS INHIBITORY EFFECT AGAINST HRAS AND NRAS” (CHUGAI SEIYAKU KABUSHIKI KAISHA, priority 2022, dated 2024).
*1 amine or outer side, *2 acyl side, *3 side chain or, on linkers, in order; H or OH if unused. Where a SMILES comes first, the peptide text is derived from it. Bridges are numbered along the chain shown (N, C = ends). [ ]: non-standard residue; d: D form. The star is where a group is joined. hPhe(3,5-F2-4-CF3) = N[C@@H](CCc1cc(F)c(C(F)(F)F)c(F)c1)C(=O)O; hPhe(3-Cl-4-CF3) = N[C@@H](CCc1ccc(C(F)(F)F)c(Cl)c1)C(=O)O; X48 = CCCN([C@@H](Cc1ccc(OCC=[*:3])cc1)C(=O)[*:2])[*:1]; NPrPhe(4-CF3) = CCCN[C@@H](Cc1ccc(C(F)(F)F)cc1)C(=O)O; X27 = COCCCN([C@@H](Cc1ccc(C)cc1)C(=O)[*:2])[*:1]; X47 = CN([C@@H](CCC=[*:3])C(=O)[*:2])[*:1]; NMeGly(cPent) = CN[C@H](C(=O)O)C1CCCC1; Pro(4,4-F2) = O=C(O)[C@@H]1CC(F)(F)CN1; Hyp = O=C(O)[C@@H]1C[C@@H](O)CN1; NMeD = CN[C@@H](CC(=O)O)C(=O)O; NMeL = CN[C@@H](CC(C)C)C(=O)O; hPip = O=C(O)[C@@H]1CCCCCN1; Morpholide = C1CN(*)CCO1; NMeA = CN[C@@H](C)C(=O)O; Ac5c = NC1(C(=O)O)CCCC1; Aze = O=C(O)[C@@H]1CCN1; NEtG = CCNCC(=O)O; Sar = CNCC(=O)O

Legend:
HRAS wild-type protein = HRAS wild-type protein (Homo sapiens, UniProt P01112); test: Binding to HRAS by surface plasmon resonance (SPR), KD and KD ratio to KRAS
How it was run: (§1)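 Running buffer contained 10 µM GDP and 10 mM MgCl2 to keep RAS in the GDP state, with 4% DMSO at pH 7.4. Compounds were flowed at 100 µL/min in 75 s steps of rising concentration over captured biotin-Avi RAS at 30°C. Sensorgrams were fitted 1:1 for KD.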

[1] = tested on: human lung cancer strain NCI-H441; type: cell-based
How it was run: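 Step one: dispense the test compound in serial DMSO dilutions. Step three: add the reagent and measure […].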

[2] = target: GDP-bound NRAS wild-type protein (Homo sapiens, UniProt P01111); test: Binding to NRAS by surface plasmon resonance (SPR), KD and KD ratio to KRAS
How it was run: as §1

[3] = ratio of the KD value with respect to HRAS wild-type protein to the KD value with respect to KRAS
[4] = ratio of the KD value with respect to GDP-bound NRAS wild-type protein to the KD value with respect to KRAS
[5] = ratio of KD for HRAS wild-type protein to KD for KRAS
[6] = ratio of KD for GDP-bound NRAS wild-type protein to KD for KRAS
[7] = ratio of KD value for HRAS wild-type protein to KD value for KRAS (SPR)
[8] = ratio of KD value for GDP-bound NRAS wild-type protein to KD value for KRAS (SPR)

Sequence of HRAS wild-type protein (P01112 whole entry): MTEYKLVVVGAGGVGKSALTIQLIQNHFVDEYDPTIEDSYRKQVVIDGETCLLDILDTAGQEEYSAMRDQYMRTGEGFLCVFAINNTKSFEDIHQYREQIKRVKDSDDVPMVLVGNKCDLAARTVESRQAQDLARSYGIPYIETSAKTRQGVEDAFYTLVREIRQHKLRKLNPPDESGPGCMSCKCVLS
Sequence of GDP-bound NRAS wild-type protein (P01111 whole entry): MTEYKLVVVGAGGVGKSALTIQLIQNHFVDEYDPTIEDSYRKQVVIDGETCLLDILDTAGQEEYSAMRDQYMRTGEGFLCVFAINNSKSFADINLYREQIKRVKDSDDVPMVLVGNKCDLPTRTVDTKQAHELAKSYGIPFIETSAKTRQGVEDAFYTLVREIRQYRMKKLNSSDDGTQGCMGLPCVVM

| SMILES | HRAS /KRAS (HRAS wild-type protein; [3]) | IC50 [1] [nM] | NRAS /KRAS [2, 4] | HRAS /KRAS (HRAS wild-type protein; [5]) | NRAS /KRAS [2, 6] | HRAS /KRAS (HRAS wild-type protein; [7]) | NRAS /KRAS [2, 8] |
| --- | --- | --- | --- | --- | --- | --- | --- |
| CC[C@H](C)[C@@H]1NC(=O)[C@H](CC(C)C)N(C)C(=O)C[C@@H](C(=O)N2CCOCC2)N(C)C(=O)[C@H](C2CCCC2)N(CC)C(=O)C2(CCCC2)NC(=O)[C@@H]2CCCN2C(=O)[C@H](CCc2cc(F)c(C(F)(F)F)c(F)c2)NC(=O)CN(C)C(=O)[C@H](Cc2ccc(C(F)(F)F)cc2)N2CCCC[C@@H](C2=O)N(C)C(=O)CN(C)C1=O [PP0538] | B (a compound having 3 or more and less than 10 is denoted as B) | 78 | B (a compound having 3 or more and less than 10 is denoted as B) |  |  |  |  |
| CCCN1C(=O)CN(C)C(=O)CN(C)C(=O)[C@H]([C@@H](C)CC)NC(=O)[C@H](CC(C)C)N(C)C(=O)C[C@@H](C(=O)N(C)C)NC(=O)[C@H](C2CCCC2)N(C)C(=O)C2(CCCC2)NC(=O)[C@@H]2CC(F)(F)CN2C(=O)[C@H](CCc2ccc(C(F)(F)F)c(Cl)c2)NC(=O)CN(C)C(=O)[C@@H]1Cc1ccc(C(F)(F)F)cc1 [PP0357] ([NMeL]I[Sar][Sar][NPrPhe(4-CF3)][Sar][hPhe(3-Cl-4-CF3)][Pro(4,4-F2)][Ac5c][NMeGly(cPent)]D-NMe2; lactam N-11) |  | 39.8 |  | B (a compound having 3 or more and less than 10 is denoted as B) | B (a compound having 3 or more and less than 10 is denoted as B) |  |  |
| CCCN1C(=O)CN(C)C(=O)CN(C)C(=O)[C@H]([C@@H](C)CC)NC(=O)[C@@H]2CCC=CCOc3ccc(cc3)C[C@H]1C(=O)N(C)CC(=O)N[C@@H](CCc1cc(F)c(C(F)(F)F)c(F)c1)C(=O)N1C[C@H](OCC)C[C@H]1C(=O)NC1(CCCC1)C(=O)N(C)[C@@H](C1CCCC1)C(=O)N(C)[C@H](C(=O)N(C)C)CC(=O)N2C [PP0900] ([X47]I[Sar][Sar][X48][Sar][hPhe(3,5-F2-4-CF3)][Hyp](Et)[Ac5c][NMeGly(cPent)][NMeD]-NMe2; staple 1-5; lactam N-11) |  | 4.9 |  | C (A compound having a KD ratio of 0.1 or more and less than 3 is denoted as C) | C (A compound having a KD ratio of 0.1 or more and less than 3 is denoted as C) |  |  |
| CC[C@H](C)[C@@H]1NC(=O)[C@H](CC(C)C)N(C)C(=O)C[C@@H](C(=O)N2CCOCC2)N(C)C(=O)[C@H](C2CCCC2)N(C)C(=O)C2(CCCC2)NC(=O)[C@@H]2CCCN2C(=O)[C@H](CCc2ccc(C(F)(F)F)c(Cl)c2)NC(=O)CN(C)C(=O)[C@H](Cc2ccc(C)cc2)N(CCCOC)C(=O)CN(C)C(=O)CN(C)C1=O [PP0105] ([NMeL]I[Sar][Sar][X27][Sar][hPhe(3-Cl-4-CF3)]P[Ac5c][NMeGly(cPent)][NMeD]-Morpholide; lactam N-11) |  | 8.3 |  | C (A compound having a KD ratio of 0.1 or more and less than 3 is denoted as C) | B (a compound having 3 or more and less than 10 is denoted as B) |  |  |
| CCCN1C(=O)CN(C)C(=O)[C@@H]2CCN2C(=O)[C@H]([C@@H](C)CC)NC(=O)[C@H](CC(C)C)N(C)C(=O)C[C@@H](C(=O)N2CCOCC2)N(C)C(=O)[C@H](C2CCCC2)N(C)C(=O)C2(CCCC2)NC(=O)[C@@H]2CCCN2C(=O)[C@H](CCc2cc(F)c(C(F)(F)F)c(F)c2)NC(=O)CN(C)C(=O)[C@@H]1Cc1ccc(C(F)(F)F)cc1 [PP0770] ([NMeL]I[Aze][Sar][NPrPhe(4-CF3)][Sar][hPhe(3,5-F2-4-CF3)]P[Ac5c][NMeGly(cPent)][NMeD]-Morpholide; lactam N-11) |  | 62.2 |  | B (a compound having 3 or more and less than 10 is denoted as B) | B (a compound having 3 or more and less than 10 is denoted as B) |  |  |
| CC[C@H](C)[C@@H]1NC(=O)[C@H](COC)N(C)C(=O)C[C@@H](C(=O)N2CCOCC2)N(C)C(=O)[C@H](C2CCCC2)N(C)C(=O)C2(CCC2)NC(=O)[C@@H]2C[C@@H](OC)CN2C(=O)[C@H](CCc2cc(F)c(C(F)(F)F)c(F)c2)NC(=O)CN(C)C(=O)[C@H](Cc2ccc(C(F)(F)F)cc2)N2CCCCC[C@@H](C2=O)N(C)C(=O)CN(C)C1=O [PP0837] |  | 63.4 |  | B (a compound having 3 or more and less than 10 is denoted as B) | B (a compound having 3 or more and less than 10 is denoted as B) |  |  |
| CCC[C@H]1C(=O)N[C@@H]([C@@H](C)CC)C(=O)N(C)CC(=O)N(C)[C@H]2C/C=C\CCN(C2=O)[C@@H](Cc2ccc(C)cc2)C(=O)N(C)CC(=O)N[C@@H](CCc2ccc(C(F)(F)F)c(OC)c2)C(=O)N2C[C@H](C)C[C@H]2C(=O)NC2(CC(C)(C)C2)C(=O)N(C)[C@@H](C2CCCC2)C(=O)N(C)[C@H](C(=O)N(C)CC)CC(=O)N1C [PP1891] |  | 2.6 |  |  |  | A (a compound having 10 or more and less than 20 is denoted as A) | A (a compound having 10 or more and less than 20 is denoted as A) |
| CCCN1C(=O)CN(C)C(=O)CN(CC)C(=O)[C@H]([C@@H](C)CC)NC(=O)[C@H](CC(C)C)N(C)C(=O)C[C@@H](C(=O)N2CCOCC2)NC(=O)[C@H](C2CCCC2)N(C)C(=O)C2(CCCC2)NC(=O)[C@@H]2CC(F)(F)CN2C(=O)[C@H](CCc2ccc(C(F)(F)F)c(Cl)c2)NC(=O)CN(C)C(=O)[C@@H]1Cc1ccc(C(F)(F)F)cc1 [PP0333] ([NMeL]I[NEtG][Sar][NPrPhe(4-CF3)][Sar][hPhe(3-Cl-4-CF3)][Pro(4,4-F2)][Ac5c][NMeGly(cPent)]D-Morpholide; lactam N-11) |  | 41.6 |  | C (A compound having a KD ratio of 0.1 or more and less than 3 is denoted as C) | B (a compound having 3 or more and less than 10 is denoted as B) |  |  |
| CCCN1C(=O)[C@@H]2CCN2C(=O)[C@H](C)N(C)C(=O)[C@H]([C@@H](C)CC)NC(=O)[C@H](CC(C)C)N(C)C(=O)C[C@@H](C(=O)N2CCOCC2)N(C)C(=O)[C@H](C2CCCC2)N(C)C(=O)C2(CCCC2)NC(=O)[C@@H]2CCCN2C(=O)[C@H](CCc2ccc(C(F)(F)F)c(Cl)c2)NC(=O)CN(C)C(=O)[C@@H]1Cc1ccc(C(F)(F)F)cc1 [PP0053] ([NMeL]I[NMeA][Aze][NPrPhe(4-CF3)][Sar][hPhe(3-Cl-4-CF3)]P[Ac5c][NMeGly(cPent)][NMeD]-Morpholide; lactam N-11) |  | 4.6 |  | C (A compound having a KD ratio of 0.1 or more and less than 3 is denoted as C) | C (A compound having a KD ratio of 0.1 or more and less than 3 is denoted as C) |  |  |
| CCC[C@H]1C(=O)N[C@@H](C2CCCCC2)C(=O)N(C)CC(=O)N(C)[C@H]2C/C=C\CCN(C2=O)[C@@H](Cc2ccc(C(F)(F)F)cc2)C(=O)N(C)CC(=O)N[C@@H](CCc2ccc(C(F)(F)F)c(Cl)c2)C(=O)N2C[C@H](OCC)C[C@H]2C(=O)NC2(CC(C)(C)C2)C(=O)N(C)[C@@H](CC(C)C)C(=O)N(C)[C@H](C(=O)N(C)C)CC(=O)N1C [PP3017] |  | 46.3 |  | A (a compound having 10 or more and less than 20 is denoted as A) | AA (a compound having 20 or more is denoted as AA) |  |  |
| CCCN1C(=O)CN(C)C(=O)CN(CC)C(=O)[C@H]([C@@H](C)CC)NC(=O)[C@@H]2CCCCCN2C(=O)C[C@@H](C(=O)N2CCOCC2)N(C)C(=O)[C@H](C2CCCC2)N(C)C(=O)C2(CCCC2)NC(=O)[C@@H]2CCCN2C(=O)[C@H](CCc2ccc(C(F)(F)F)c(Cl)c2)NC(=O)CN(C)C(=O)[C@@H]1Cc1ccc(C(F)(F)F)cc1 [PP0289] ([hPip]I[NEtG][Sar][NPrPhe(4-CF3)][Sar][hPhe(3-Cl-4-CF3)]P[Ac5c][NMeGly(cPent)][NMeD]-Morpholide; lactam N-11) |  | 76.4 |  | B (a compound having 3 or more and less than 10 is denoted as B) | B (a compound having 3 or more and less than 10 is denoted as B) |  |  |
| CC(C)C[C@H]1C(=O)N[C@@H](C2CCC2)C(=O)N(C)CC(=O)N(C)[C@H]2CCCCCN(C2=O)[C@@H](Cc2ccc(C(F)(F)F)cc2)C(=O)N(C)CC(=O)N[C@@H](CCc2cc(F)c(C(F)(F)F)c(F)c2)C(=O)N2CCC[C@H]2C(=O)NC2(CCCC2)C(=O)N(C)[C@@H](C2CCCC2)C(=O)N(C)[C@H](C(=O)N2CCOCC2)CC(=O)N1C [PP0522] | B (a compound having 3 or more and less than 10 is denoted as B) | 83 | B (a compound having 3 or more and less than 10 is denoted as B) |  |  |  |  |
| CCCN1C(=O)CN(C)C(=O)[C@@H]2CCN2C(=O)[C@H]([C@@H](C)CC)NC(=O)[C@H](CC(C)C)N(C)C(=O)C[C@@H](C(=O)N2CCOCC2)NC(=O)[C@H](C2CCCC2)N(C)C(=O)C2(CCCC2)NC(=O)[C@@H]2CC(F)(F)CN2C(=O)[C@H](CCc2ccc(C(F)(F)F)c(Cl)c2)NC(=O)CN(C)C(=O)[C@@H]1Cc1ccc(C(F)(F)F)cc1 [PP0339] ([NMeL]I[Aze][Sar][NPrPhe(4-CF3)][Sar][hPhe(3-Cl-4-CF3)][Pro(4,4-F2)][Ac5c][NMeGly(cPent)]D-Morpholide; lactam N-11) |  | 158 |  | B (a compound having 3 or more and less than 10 is denoted as B) | B (a compound having 3 or more and less than 10 is denoted as B) |  |  |
| CCCN(C)C(=O)[C@@H]1CC(=O)N(C)[C@@H](CC(F)F)C(=O)N[C@@H]([C@@H](C)CC)C(=O)N(C)CC(=O)N(C)[C@H]2C/C=C\CCN(C2=O)[C@@H](Cc2ccc(C(F)(F)F)cc2)C(=O)N(C)CC(=O)N[C@@H](CCc2cc(F)c(C(F)(F)F)c(F)c2)C(=O)N2CCC[C@H]2C(=O)NC2(CC(C)(C)C2)C(=O)N(C)[C@@H](C2CCCC2)C(=O)N1C [PP1721] |  | 10 |  |  |  | A (a compound having 10 or more and less than 20 is denoted as A) | A (a compound having 10 or more and less than 20 is denoted as A) |
